From patent US9255132B2, “Angiopoietin derived peptides” (Compugen Ltd., priority 2008, dated 2016)

Legend:
[1] = system: avian chorioallantoic membrane (CAM); format: in vivo, Leghorn fertilized eggs; conditions: fumagillin 5 μg/CAM; 48 h
Protocol: CGEN-G6 [SEQ ID NO: 6], CGEN-F9 [SEQ ID NO: 7], CGEN-F12 [SEQ ID NO: 8], CGEN-C6 [SEQ ID NO: 9], CGEN-A11 [SEQ ID NO: 10], and CGEN-G2 [SEQ ID NO: 11], were analyzed for their ability to affect angiogenesis using the in ovo avian chorioallantoic membrane (CAM) model of angiogenesis, which is widely used as a model to examine compounds affecting angiogenesis (Richardson and Singh 2003, Curr Drug Targets Cardiovasc Haematol Disord., 3(2):155-85). Two positive controls were used: fumagillin as a general anti-angiogenic compound, and Tie2 neutralizing antibody as anti-angiogenic inhibitor of the Ang/Tie2 pathway. Leghorn fertilized eggs were incubated for 4 days at 37° C., when a window was opened on the egg's shell, exposing the CAM. Two different doses of peptides (0.5 and 5 nmol/CAM), Tie-2 neutralizing antibody (R&D Systems, Cat#AF313, 10 μg/ml; 0.4 μg/CAM) or fumagillin (Tocris Bioscience, Cat #1768; 5 μg/CAM) were applied in a 40 μl volume inside an area of 1 cm^2 (restricted by a plastic ring) of the CAM on day 9 of embryo development. The appropriate vehicle controls were also tested. Forty-eight hours after treatment and subsequent incubation at 37° C., CAMs were fixed in situ, excised from the eggs, placed on slides and left to air-dry. Pictures were taken through a stereoscope equipped with a digital camera and the total length of the vessels was measured using image analysis software (NIH Image). For each group a total of 17-24 eggs from three different experiments were used. Data are presented as means±SEM and expressed as % of vehicle control. Statistical analysis (ANOVA followed by Dunnett's post-hoc test) was performed using Graph Pad.
FIG. 6 depict results obtained on vessel length with peptides CGEN-G6 [SEQ ID NO: 6], CGEN-F9 [SEQ ID NO: 7], CGEN-F12 [SEQ ID NO: 8], CGEN-C6 [SEQ ID NO: 9], CGEN-A11 [SEQ ID NO: 10], and CGEN-G2 [SEQ ID NO: 11], compared to Tie2 neutralizing antibody (Ab) and the anti-angiogenic compound fumagillin. Neutralizing Tie2 Ab blocked vessel length by 36%, while the angiogenesis inhibitor fumagillin blocked vessel length by 32%.

[2] = system: co-culture of early passage human endothelial cells with early passage human interstitial cells; test: AngioKit in vitro angiogenesis, total tubule length; format: cell-based; conditions: 14 days, data not shown
[3] = system: oxygen-induced retinopathy (OIR); test: Rodent model of oxygen-induced retinopathy (OIR); format: in vivo, Sprague Dawley rats
Source text: In order to assess the in viva efficacy of CGEN-A 11 [SEQ ID NO: 10] in a disease model of angiogenesis, a rodent model of oxygen-induced retinopathy (OIR) was used. Sprague Dawley rats were raised from birth through day PI4 in a variable oxygen atmosphere consisting of 24-hour alternating cycles of 50% and 10% oxygen. Rats were predisposed to pathological retinal angiogenesis as a result of oxygen treatment. Upon removal from the oxygen exposure chamber on day P14, rats received intravitreal injections of CGEN-A11 [SEQ ID NO: 10] in one of two doses: 15 μg/ml (low) or 75 μg/ml (high), 100 μg/ml recombinant rat Tie-2/Fc (R&D Systems, 3874-T2) or 100 μg/ml anti-VEGFR2 (Sigma, V1014) as positive controls, a combination of CGEN-A11 [SEQ ID NO: 10] at 30 μg/ml and anti-VEGFR2 (100 μg/ml), or vehicle (PBS) at a volume of 5 μl. An additional similar intravitreal administration took place 3 days later, on day P17. All pups were sacrificed on day P20. Both normal, intra-retinal vascular growth and abnormal, pre-retinal neovascular growth were assessed at six days post-exposure (P20) in ADPase-stained retinal flat-mounts, using widely published methods (e.g. Penn J S et al., 1991, Invest Ophthalmol Vis Sci. 32(4):1147; MicLeod D S et al., 1987, Microvasc Res. 33:257-269). All assessments were performed by a single, highly trained observer, who was blinded to treatment group. Areas of normal and abnormal vascular growth were measured via computer-assisted image analysis using high-resolution digital images of the stained retinal flat-mounts. The data were subjected to analysis of variance to determine statistical significance and a Dunnett's post hoc test to identify how the various treatment groups compared.
Data are depicted using percent total retinal area vascularized. Sample sizes (10, 11 or 12) are indicated on each bar. […] These differences yielded statistical significance, both at p<0.0001. Statistical significance was calculated using area (mm^2) measurements.
Data are depicted as area vascularized (mm^2). Sample sizes (10, 11 or 12) are indicated on each bar.

CO[C@@H]1[C@H](OC(=O)/C=C/C=C/C=C/C=C/C(=O)O)CC[C@]2(CO2)[C@H]1[C@@]1(C)O[C@@H]1CC=C(C)C [fumagillin, reference compound]
inhibition of vessel length [1]: 32%

Cc1ccc(C(=O)Nc2ccc(S(=O)(=O)O)c3cc(S(=O)(=O)O)cc(S(=O)(=O)O)c23)cc1NC(=O)c1cccc(NC(=O)Nc2cccc(C(=O)Nc3cc(C(=O)Nc4ccc(S(=O)(=O)O)c5cc(S(=O)(=O)O)cc(S(=O)(=O)O)c45)ccc3C)c2)c1 [suramin]
reduction of tubule length ([2]; suramin 20 μM): 50%

VEGF
induction of tubule length ([2]; VEGF 2 ng/mL, pro-angiogenic control): 130%

B1: Tie-2/Fc: recombinant rat Tie-2/Fc (R&D Systems, 3874-T2), positive control (protein)
chain: AMDLILINSLPLVSDAETSLTCIASGWRPHEPITIGRDFEALMNQHQDPLEVTQDVTREWAKKVVWKREKASKINGAYFCEGRVRGEAIRIRTMKMRQQASFLPATLTMTVDKGDNVNISFKKVLIKEEDAVIYKNGSFIHSVPRHEVPDILEVHLPHAQPQDAGVYSARYIGGNLFTSAFTRLIVRRCEAQKWGPECNHLCTACMNNGVCHEDTGECICPPGFMGRTCEKACELHTFGRTCKERCSGQEGCKSYVFCLPDPYGCSCATGWKGLQCNEACHPGFYGPDCKLRCSCNNGEMCDRFQGCLCSPGWQGLQCEREGIQRMTPKIVDLPDHIEVNSGKFNPICKASGWPLPTNEEMTLVKPDGTVLHPKDFNHTDHFSVAIFTIHRILPPDSGVWVCSVNTVAGMVEKPFNISVKVLPKPLNAPNVIDTGHNFAVINISSEPYFGDGPIKSKKLLYKPVNHYEAWQHIQVTNEIVTLNYLEPRTEYELCVQLVRRGEGGEGHPGPVRRFTTASIGLPPPRGLNLLPKSQTTLNLTWQPIFPSSEDDFYVEVERRSVQKSDQQNIKVPGNLTSVLLNNLHPREQYVVRARVNTKAQGEWSEDLTAWTLSDILPPQPENIKISNITHSSAVISWTILDGYSISSITIRYKVQGKNEDQHVDVKIKNATITQYQLKGLEPETAYQVDIFAENNIGSSNPAFSHELVTLPESQAPADLGGGK
modifications: left off: a dimerising Fc or GST
notes: recombinant rat Tie-2/Fc (R&D Systems, 3874-T2), positive control
inhibition of pre-retinal neovascular growth (pathological angiogenesis) ([3]; Tie-2/Fc intravitreal 100 μg/ml, P20, p=0.0436): 61.9%
intra-retinal normal vascular growth compared to PBS control ([3]; intravitreal 100 μg/ml, 5 μl, P14 and P17, assessed P20, p<0.0001): statistically significant increase
